# Assay results reported in ChEMBL document CHEMBL1158547, “KDR Kinase Inhibitor Isolated from the Mushroom Boletopsis leucomelas” (J Nat Prod, 2010).
# Experiments:
# [1] = test system: HUVEC; test: Antiproliferative activity against HUVEC after 72 hrs by WST8 dye reduction assay; assay type: functional, cell-based; conditions: Homo sapiens
# [2] = biological target: Vascular endothelial growth factor receptor 2 (Homo sapiens, UniProt P35968); test: Inhibition of KDR after 2 hrs incubation
# Sequence of Vascular endothelial growth factor receptor 2 (P35968 whole entry): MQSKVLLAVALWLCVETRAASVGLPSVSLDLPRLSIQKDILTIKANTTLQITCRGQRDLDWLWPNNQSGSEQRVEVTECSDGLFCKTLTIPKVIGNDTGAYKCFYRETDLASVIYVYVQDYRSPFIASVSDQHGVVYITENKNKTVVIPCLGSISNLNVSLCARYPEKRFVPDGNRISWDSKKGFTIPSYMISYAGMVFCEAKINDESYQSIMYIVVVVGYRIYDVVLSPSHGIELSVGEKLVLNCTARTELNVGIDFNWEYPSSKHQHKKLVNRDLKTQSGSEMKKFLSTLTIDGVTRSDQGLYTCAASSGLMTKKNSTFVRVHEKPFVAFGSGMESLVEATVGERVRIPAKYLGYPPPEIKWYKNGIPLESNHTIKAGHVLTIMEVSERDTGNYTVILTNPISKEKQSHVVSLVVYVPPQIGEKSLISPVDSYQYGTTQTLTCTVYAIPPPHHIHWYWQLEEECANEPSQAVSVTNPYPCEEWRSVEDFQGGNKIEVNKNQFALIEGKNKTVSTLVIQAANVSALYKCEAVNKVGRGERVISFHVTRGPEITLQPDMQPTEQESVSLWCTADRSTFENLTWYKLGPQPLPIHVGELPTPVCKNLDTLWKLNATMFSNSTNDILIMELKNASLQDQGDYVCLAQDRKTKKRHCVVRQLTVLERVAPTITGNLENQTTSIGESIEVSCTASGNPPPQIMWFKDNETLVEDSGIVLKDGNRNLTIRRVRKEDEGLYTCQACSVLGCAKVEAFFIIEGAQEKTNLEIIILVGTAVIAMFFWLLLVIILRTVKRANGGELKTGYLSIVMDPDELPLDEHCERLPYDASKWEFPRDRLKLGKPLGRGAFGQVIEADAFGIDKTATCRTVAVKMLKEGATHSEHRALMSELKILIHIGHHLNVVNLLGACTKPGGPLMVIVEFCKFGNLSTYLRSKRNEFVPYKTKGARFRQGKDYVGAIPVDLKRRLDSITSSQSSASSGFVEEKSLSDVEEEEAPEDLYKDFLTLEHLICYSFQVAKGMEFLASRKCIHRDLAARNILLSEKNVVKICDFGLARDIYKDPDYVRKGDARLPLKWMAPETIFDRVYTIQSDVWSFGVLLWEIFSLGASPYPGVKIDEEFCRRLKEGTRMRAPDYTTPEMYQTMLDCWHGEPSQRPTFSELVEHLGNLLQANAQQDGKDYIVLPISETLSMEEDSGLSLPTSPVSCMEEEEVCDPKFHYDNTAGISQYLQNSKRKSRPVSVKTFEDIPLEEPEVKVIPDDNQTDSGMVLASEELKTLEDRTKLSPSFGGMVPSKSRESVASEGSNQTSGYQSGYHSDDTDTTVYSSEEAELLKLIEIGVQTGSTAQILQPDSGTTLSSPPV
smiles,measurement,setting,value
CC(=O)Oc1c(-c2ccc(O)c(O)c2)c(O)c(O)c2c1oc1cc(O)c(O)cc12 [BOLETOPSIN C],IC50,[1],9.04 µM
same,IC50,[2],70.7 µM
